Assay results: EPA's ToxValDB 9.5 (doi:10.2903/j.efsa.2016.4493)

What was measured:
Bibionidae = settings: chronic/long-term; duration: 28 days; other
Apis mellifera = settings: acute, mortality
Tagia sp. = settings: mortality
Folsomia candida = settings: chronic/long-term; duration: 4 weeks; reproduction
Oryctolagus sp. = settings: developmental; development
Mus musculus = settings: acute; oral; mortality

Row | Compound | NOEC (Bibionidae) [mg/L] | LD50 (Apis mellifera; dermal) [µg/piece] | LD50 (Apis mellifera; oral, unspecified) [µg/piece] | LC50 (Tagia sp.; acute, duration: 14 days) [mg/kg] | NOEC (Tagia sp.; chronic/long-term) [mg/kg] | NOEC (Folsomia candida) [mg/kg] | LC50 (Oncorhynchus mykiss; acute, duration: 96 hours, mortality) [µg/mL] | NOEC (Oncorhynchus mykiss; chronic/long-term, duration: 28 days, development) [µg/L] | NOAEL (Rattus norvegicus; chronic, duration: 2 years, body weight) [mg/kg-day] | NOAEL (Rattus norvegicus; subchronic, duration: 90 days, oral, hematological) [mg/kg-day] | NOAEL (Oryctolagus sp.) [mg/kg-day] | LD50 (Coturnix japonica; acute, oral, diet, mortality) [mg/kg-day] | LC50 (Coturnix japonica; acute, oral, mortality) [mg/kg-day] | NOAEL (Coturnix japonica; chronic) [mg/kg-day] | LD50 (Mus musculus) [mg/kg-day]
1 | O=S(=O)(O)O.Oc1cccc2cccnc12.Oc1cccc2cccnc12 [8-Hydroxyquinoline sulfate] | 167 | > 100 | > 68.6 | > 409 | 417 | 52.4 | 2.68 | 10.5 |  |  |  |  |  |  | 
2 | Oc1cccc2cccnc12 [8-Hydroxyquinoline] |  |  |  |  |  |  |  |  | 73 | 97.7 | 5 | > 1070 | 311 | 2.78 | 177
